Test results published in ChEMBL document CHEMBL1143295, “Discovery of potent inhibitors of interleukin-2 inducible T-cell kinase (ITK) through structure-based drug design” (Bioorg Med Chem Lett, 2009).
pIC50: −log10 of the molar value.

How the values were obtained:
Insulin receptor = Insulin receptor (Homo sapiens, UniProt P06213); assay: Inhibition of IRK
[1] = target: T1, Tyrosine-protein kinase ITK/TSK (Homo sapiens, UniProt Q08881); assay: Inhibition of ITK by DELFIA method
T1 sequence (Q08881 whole entry): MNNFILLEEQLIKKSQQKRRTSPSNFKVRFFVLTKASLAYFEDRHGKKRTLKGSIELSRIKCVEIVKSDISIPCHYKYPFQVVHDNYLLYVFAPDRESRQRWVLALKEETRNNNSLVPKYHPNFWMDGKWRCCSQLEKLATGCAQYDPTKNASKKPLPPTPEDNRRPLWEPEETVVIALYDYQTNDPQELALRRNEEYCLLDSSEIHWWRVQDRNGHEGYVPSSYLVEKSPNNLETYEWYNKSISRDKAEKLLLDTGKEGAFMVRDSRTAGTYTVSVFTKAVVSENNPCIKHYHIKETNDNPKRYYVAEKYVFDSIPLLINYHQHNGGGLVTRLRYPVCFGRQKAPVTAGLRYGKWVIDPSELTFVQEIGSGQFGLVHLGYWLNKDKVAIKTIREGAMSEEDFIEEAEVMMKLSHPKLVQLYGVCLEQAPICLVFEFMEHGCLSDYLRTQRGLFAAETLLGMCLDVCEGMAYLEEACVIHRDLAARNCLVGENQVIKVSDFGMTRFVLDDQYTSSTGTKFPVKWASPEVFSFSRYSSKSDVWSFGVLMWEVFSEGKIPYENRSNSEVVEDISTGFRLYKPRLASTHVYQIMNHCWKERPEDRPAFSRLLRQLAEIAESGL

[2] = target: T1, Tyrosine-protein kinase ITK/TSK; assay: Inhibition of human ITK expressed in chicken DT40 cells assessed as calcium influx by FLIPR; format: cell-based
[3] = Selectivity ratio of IC50 for IRK to IC50 for ITK

Sequence of Insulin receptor (P06213 28-758 limits assumed): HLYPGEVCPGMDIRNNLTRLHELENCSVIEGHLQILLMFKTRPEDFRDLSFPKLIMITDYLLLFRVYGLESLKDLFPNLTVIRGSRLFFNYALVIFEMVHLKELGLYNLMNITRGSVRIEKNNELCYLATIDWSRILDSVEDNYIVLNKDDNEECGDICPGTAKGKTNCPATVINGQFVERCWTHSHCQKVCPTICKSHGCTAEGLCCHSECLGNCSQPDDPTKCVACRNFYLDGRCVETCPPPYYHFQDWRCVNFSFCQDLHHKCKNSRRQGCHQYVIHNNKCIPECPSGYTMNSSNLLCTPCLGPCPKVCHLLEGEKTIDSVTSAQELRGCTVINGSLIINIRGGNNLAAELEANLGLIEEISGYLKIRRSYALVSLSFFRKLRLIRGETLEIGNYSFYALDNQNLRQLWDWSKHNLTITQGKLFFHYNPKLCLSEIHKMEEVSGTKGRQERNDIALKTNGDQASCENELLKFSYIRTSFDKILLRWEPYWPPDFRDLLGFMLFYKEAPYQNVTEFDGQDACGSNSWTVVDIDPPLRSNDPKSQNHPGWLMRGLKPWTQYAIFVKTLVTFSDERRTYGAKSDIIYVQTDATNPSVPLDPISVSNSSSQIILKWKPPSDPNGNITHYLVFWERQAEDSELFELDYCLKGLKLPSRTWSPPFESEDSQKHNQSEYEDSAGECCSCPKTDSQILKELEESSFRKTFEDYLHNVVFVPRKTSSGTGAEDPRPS
Sequence of Insulin receptor (P06213 763-1382 limits assumed): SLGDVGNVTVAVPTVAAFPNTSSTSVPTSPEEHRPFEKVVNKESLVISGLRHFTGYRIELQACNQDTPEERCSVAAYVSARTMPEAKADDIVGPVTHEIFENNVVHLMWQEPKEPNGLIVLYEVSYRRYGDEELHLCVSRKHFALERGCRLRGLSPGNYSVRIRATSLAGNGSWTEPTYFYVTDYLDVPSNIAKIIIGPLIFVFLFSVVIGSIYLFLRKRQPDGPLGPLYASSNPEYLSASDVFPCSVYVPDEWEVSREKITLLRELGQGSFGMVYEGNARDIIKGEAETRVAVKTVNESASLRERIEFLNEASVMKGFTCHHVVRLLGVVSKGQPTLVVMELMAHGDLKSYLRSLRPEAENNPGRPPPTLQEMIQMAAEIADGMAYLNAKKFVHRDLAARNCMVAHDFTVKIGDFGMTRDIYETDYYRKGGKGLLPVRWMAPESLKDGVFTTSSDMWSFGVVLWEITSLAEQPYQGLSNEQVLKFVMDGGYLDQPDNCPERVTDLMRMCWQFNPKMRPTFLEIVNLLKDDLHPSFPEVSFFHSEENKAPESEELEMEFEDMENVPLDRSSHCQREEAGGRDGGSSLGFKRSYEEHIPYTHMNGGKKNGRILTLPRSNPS

SMILES | pIC50 (Insulin receptor) | pIC50 [1] | pIC50 [2] | Ratio IC50 [3]
CN(C(=O)c1ccccc1)c1ccc2c(c1)[nH]/c(=N\C(=O)c1cocn1)n2CCC(N)=O |  |  |  | > 1000
CN(C(=O)c1ccccc1)c1ccc2c(c1)nc(NC(=O)c1ccc(Br)cc1)n2CCC(N)=O | < 5.22 |  |  | 
CN(C(=O)c1ccccc1)c1ccc2c(c1)[nH]/c(=N\C(=O)c1ncco1)n2CCC(N)=O | < 5.22 |  |  | 
CN(C(=O)c1ccccc1)c1ccc2c(c1)[nH]/c(=N\C(=O)c1cnco1)n2CCC(N)=O | < 5.22 | 6.74 | < 5.30 | > 1000
CC(C)C(=O)c1ccc(C(=O)Nc2nc3cc(N(C)C(=O)c4ccccc4)ccc3n2CCC(N)=O)s1 | < 5.22 |  |  | 
COc1ccc(C(=O)Nc2nc3cc(N(C)C(=O)c4ccccc4)ccc3n2CCC(N)=O)cc1 | < 5.22 | 6.77 | < 5.30 | 
CN(C(=O)c1ccccc1)c1ccc2c(c1)nc(NC(=O)c1ccc(-c3ccnc(C#N)c3)s1)n2CCC(N)=O | < 5.22 |  |  | 
CN(C(=O)c1ccccc1)c1ccc2c(c1)nc(NC(=O)c1ccc(Oc3ccccc3)s1)n2CCC(N)=O | < 5.22 |  |  | 
CN(C(=O)c1ccccc1)c1ccc2c(c1)nc(NC(=O)c1ccc(-c3nccs3)s1)n2CCC(N)=O | < 5.22 |  |  | 
CN(C(=O)c1ccccc1)c1ccc2c(c1)[nH]/c(=N\C(=O)c1ccc(N3CCCC3)s1)n2CCC(N)=O | < 5.22 |  |  | 
CN(C(=O)c1ccccc1)c1ccc2c(c1)nc(NC(=O)c1ccc(N3CCNCC3)s1)n2CCC(N)=O | < 5.22 | 6.82 | < 5.49 | 
CN(C(=O)c1ccccc1)c1ccc2c(c1)nc(NC(=O)c1ccc(N3CCOCC3)s1)n2CCC(N)=O | < 5.22 | 7.13 | < 5.49 | 
CN(C(=O)c1ccccc1)c1ccc2c(c1)[nH]/c(=N\C(=O)c1ccc(-c3csc(N)n3)s1)n2CCC(N)=O | < 5.22 |  |  | 
CN(C(=O)c1ccccc1)c1ccc2c(c1)[nH]/c(=N\C(=O)c1ccc(-c3ccccn3)s1)n2CCC(N)=O | < 5.22 |  |  | 
CN(C(=O)c1ccccc1)c1ccc2c(c1)[nH]/c(=N\C(=O)c1cccc(-c3ccccc3)c1)n2CCC(N)=O | < 5.22 |  |  | 
CN(C(=O)c1ccccc1)c1ccc2c(c1)nc(NC(=O)c1ccc(-c3cocn3)s1)n2CCC(N)=O | < 5.22 |  |  | 

The remaining lines, values ahead:

pIC50 (Insulin receptor) | pIC50 [1] | pIC50 [2] | Ratio IC50 [3] | SMILES
< 5.22 |  |  |  | CN(C(=O)c1ccccc1)c1ccc2c(c1)nc(NC(=O)c1ccno1)n2CCC(N)=O
< 5.22 |  |  |  | CN(C(=O)c1ccccc1)c1ccc2c(c1)[nH]/c(=N\C(=O)c1ccc(-c3ccc(C#N)nc3)s1)n2CCC(N)=O
< 5.22 |  |  |  | CN(C(=O)c1ccccc1)c1ccc2c(c1)nc(NC(=O)c1ccc(C(=O)c3ccccc3)s1)n2CCC(N)=O
5.24 |  |  |  | CN(C(=O)c1ccccc1)c1ccc2c(c1)[nH]/c(=N\C(=O)c1cccc3ccccc13)n2CCC(N)=O
< 5.22 |  |  |  | CN(C(=O)c1ccccc1)c1ccc2c(c1)[nH]/c(=N\C(=O)c1ccc(N3CCCCC3)s1)n2CCC(N)=O
< 5.22 |  |  |  | CN(C(=O)c1ccccc1)c1ccc2c(c1)nc(NC(=O)c1ccc(-c3ccnc(F)c3)s1)n2CCC(N)=O
5.80 | 6.89 | < 5.30 |  | CN(C(=O)c1ccccc1)c1ccc2c(c1)[nH]/c(=N\C(=O)c1cncs1)n2CCC(N)=O
< 5.22 |  |  |  | CN(C(=O)c1ccccc1)c1ccc2c(c1)[nH]/c(=N\C(=O)c1ccc(-c3ccncc3)s1)n2CCC(N)=O
< 5.22 |  |  |  | CN(C(=O)c1ccccc1)c1ccc2c(c1)[nH]/c(=N\C(=O)c1ccc(-c3ccccc3)cc1)n2CCC(N)=O
6.20 | 7.82 | 7.00 |  | CN(C(=O)c1ccccc1)c1ccc2c(c1)nc(NC(=O)c1ccc(Br)s1)n2CCC(N)=O
< 5.22 |  |  |  | CN(C(=O)c1ccccc1)c1ccc2c(c1)nc(NC(=O)c1ccc(OCc3ccccc3)s1)n2CCC(N)=O
< 5.22 |  |  |  | CN(C(=O)c1ccccc1)c1ccc2c(c1)nc(NC(=O)c1ccc3ccccc3c1)n2CCC(N)=O
< 5.22 |  |  |  | CN(C(=O)c1ccccc1)c1ccc2c(c1)nc(NC(=O)c1ccc(-c3ccc(F)nc3)s1)n2CCC(N)=O
< 5.22 |  |  |  | CN(C(=O)c1ccccc1)c1ccc2c(c1)[nH]/c(=N\C(=O)c1ccc(-c3cncc(C#N)c3)s1)n2CCC(N)=O
< 5.22 |  |  |  | CN(C(=O)c1ccccc1)c1ccc2c(c1)[nH]/c(=N\C(=O)c1ccc(-c3ccccc3)s1)n2CCC(N)=O
< 5.22 |  |  |  | CN(C(=O)c1ccccc1)c1ccc2c(c1)[nH]/c(=N\C(=O)c1ccc(-c3cccnc3)s1)n2CCC(N)=O
< 5.22 |  |  |  | CN(C(=O)c1ccccc1)c1ccc2c(c1)[nH]/c(=N\C(=O)c1ccc(-c3ncco3)s1)n2CCC(N)=O
< 5.22 |  |  |  | CC(=O)c1ccc(C(=O)Nc2nc3cc(N(C)C(=O)c4ccccc4)ccc3n2CCC(N)=O)s1
< 5.22 |  |  |  | CN(C(=O)c1ccccc1)c1ccc2c(c1)[nH]/c(=N\C(=O)c1ccc(-c3cnccn3)s1)n2CCC(N)=O
5.21 | 6.47 | < 5.30 |  | CN(C(=O)c1ccccc1)c1ccc2c(c1)nc(NC(=O)c1cscn1)n2CCC(N)=O
< 5.22 |  |  |  | CN(C(=O)c1ccccc1)c1ccc2c(c1)nc(NC(=O)c1ccc(C#N)cc1)n2CCC(N)=O
< 5.22 | 6.77 | < 5.30 |  | CN(C(=O)c1ccccc1)c1ccc2c(c1)nc(NC(=O)c1cocn1)n2CCC(N)=O
6.62 |  |  |  | CN(C(=O)c1ccccc1)c1ccc2c(c1)nc(NC(=O)c1ccsc1)n2CCC(N)=O
